Test results taken from ChEMBL document CHEMBL2150908, “Discovery of 2-Alkyl-1-arylsulfonylprolinamides as 11β-Hydroxysteroid Dehydrogenase Type 1 Inhibitors” (ACS Med Chem Lett, 2012).

Columns and labels:
[1] = Intrinsic clearance in human liver microsomes assessed as per mg of protein; type: ADME, Microsome; details: read-out: CLH
[2] = molecular target: 11-beta-hydroxysteroid dehydrogenase 1 (Mus musculus) (UniProt P50172); assay: Inhibition of mouse 11betaHSD1 at 100 nM by scintillation proximity assay
[3] = molecular target: T1, 11-beta-hydroxysteroid dehydrogenase 1 (Mus musculus, UniProt P50172); assay: Inhibition of mouse 11betaHSD1 by scintillation proximity assay
[4] = Half life in BALB/c mouse at 1 mg/kg, iv; type: ADME, organism-based; parameters: dose 1 mg/kg, route intravenous; details: in vivo
Mus musculus [5] = organism: Mus musculus; assay: Clearance in BALB/c mouse; type: ADME, organism-based; details: in vivo
[6] = molecular target: T2, 11-beta-hydroxysteroid dehydrogenase type 2 (Homo sapiens, UniProt P80365); assay: Inhibition of human 11betaHSD2
T2 sequence (P80365 whole entry): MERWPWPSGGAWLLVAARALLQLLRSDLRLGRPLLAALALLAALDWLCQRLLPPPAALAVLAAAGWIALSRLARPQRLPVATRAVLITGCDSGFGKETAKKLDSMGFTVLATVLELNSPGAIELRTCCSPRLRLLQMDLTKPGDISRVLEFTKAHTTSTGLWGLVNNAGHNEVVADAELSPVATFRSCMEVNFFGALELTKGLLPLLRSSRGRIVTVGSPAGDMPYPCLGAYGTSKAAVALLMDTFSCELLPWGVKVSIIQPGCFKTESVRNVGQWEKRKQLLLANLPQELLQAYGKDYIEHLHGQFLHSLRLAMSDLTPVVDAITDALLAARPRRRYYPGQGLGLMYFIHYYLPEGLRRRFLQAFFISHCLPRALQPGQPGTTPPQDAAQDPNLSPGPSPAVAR

[7] = molecular target: T1, 11-beta-hydroxysteroid dehydrogenase 1; assay: Inhibition of mouse 11betaHSD1 in 3T3L1 cells assessed as conversion of [1,2-(N)3H]-cortisone to cortisol after 1 hr by liquid scintillation counter; type: cell-based, 3T3-L1
[8] = Volume of distribution at steady state in BALB/c mouse; type: ADME, organism-based; details: in vivo, read-out: Vdss
[9] = AUC (0 to t) in BALB/c mouse at 5 mg/kg, ip; type: ADME, organism-based; parameters: dose 5 mg/kg, route intraperitoneal; details: plasma
[10] = molecular target: T3, 11-beta-hydroxysteroid dehydrogenase 1 (Homo sapiens, UniProt P28845); assay: Inhibition of human 11betaHSD1 by scintillation proximity assay
Target sequence in this assay (P28845 whole entry): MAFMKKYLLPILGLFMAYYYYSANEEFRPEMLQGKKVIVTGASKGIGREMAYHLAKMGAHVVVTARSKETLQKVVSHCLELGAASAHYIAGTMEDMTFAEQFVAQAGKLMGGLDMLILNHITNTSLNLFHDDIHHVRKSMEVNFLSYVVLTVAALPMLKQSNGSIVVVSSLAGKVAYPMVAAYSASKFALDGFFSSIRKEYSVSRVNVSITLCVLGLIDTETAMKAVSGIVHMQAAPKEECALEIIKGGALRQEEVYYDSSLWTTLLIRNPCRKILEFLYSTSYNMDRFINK

[11] = Bioavailability in BALB/c mouse at 5 mg/kg, ip; type: ADME, organism-based; details: in vivo
[12] = Oral bioavailability in BALB/c mouse at 5 mg/kg; type: ADME, organism-based; details: in vivo
[13] = molecular target: T3, 11-beta-hydroxysteroid dehydrogenase 1; assay: Inhibition of human 11betaHSD1 at 100 nM by scintillation proximity assay
Target sequence in this assay (P28845 whole entry, looked up): as the sequence (P28845 whole entry) above

Mus musculus [14] = assay: Inhibition of 11betaHSD1 in ip dosed BALB/c mouse using prednisone as substrate assessed as reduction of prednisolone production administered 1 hr prior to substrate addition measured after 2 mins post substrate addition by LC/MS/MS analysis; type: functional, organism-based
Mus musculus [15] = assay: Inhibition of 11betaHSD1 in BALB/c mouse using prednisone as substrate assessed as remaining prednisolone level at 30 mg/kg, ip administered 1 hr prior to substrate addition measured after 2 mins post substrate addition by LC/MS/MS analysis; type: functional; details: route intraperitoneal
Mus musculus [16] = assay: Inhibition of 11betaHSD1 in BALB/c mouse using prednisone as substrate assessed as reduction of prednisolone production at 30 mg/kg, ip administered 1 hr prior to substrate addition measured after 2 mins post substrate addition by LC/MS/MS analysis; type: functional; details: route intraperitoneal
Mus musculus [17] = assay: Inhibition of 11betaHSD1 in BALB/c mouse using prednisone as substrate assessed as remaining prednisolone level at 10 mg/kg, ip administered 1 hr prior to substrate addition measured after 2 mins post substrate addition by LC/MS/MS analysis; type: functional; details: route intraperitoneal
[18] = Plasma concentration in BALB/c mouse at 10 mg/kg, ip administered 1 hr prior to prednisone addition measured after 2 mins post prednisone addition by LC/MS/MS analysis; type: ADME, organism-based; parameters: dose 10 mg/kg, route intraperitoneal
Mus musculus [19] = assay: Inhibition of 11betaHSD1 in BALB/c mouse using prednisone as substrate assessed as reduction of prednisolone production at 10 mg/kg, ip administered 1 hr prior to substrate addition measured after 2 mins post substrate addition by LC/MS/MS analysis; type: functional; details: route intraperitoneal
[20] = Plasma concentration in BALB/c mouse at 30 mg/kg, ip administered 1 hr prior to prednisone addition measured after 2 mins post prednisone addition by LC/MS/MS analysis; type: ADME, organism-based; parameters: dose 30 mg/kg, route intraperitoneal
[21] = Plasma concentration in BALB/c mouse at 3 mg/kg, ip administered 1 hr prior to prednisone addition measured after 2 mins post prednisone addition by LC/MS/MS analysis; type: ADME, organism-based; parameters: dose 3 mg/kg, route intraperitoneal
Mus musculus [22] = assay: Inhibition of 11betaHSD1 in BALB/c mouse using prednisone as substrate assessed as reduction of prednisolone production at 3 mg/kg, ip administered 1 hr prior to substrate addition measured after 2 mins post substrate addition by LC/MS/MS analysis; type: functional; details: route intraperitoneal
Mus musculus [23] = assay: Inhibition of 11betaHSD1 in BALB/c mouse using prednisone as substrate assessed as remaining prednisolone level at 3 mg/kg, ip administered 1 hr prior to substrate addition measured after 2 mins post substrate addition by LC/MS/MS analysis; type: functional; details: route intraperitoneal

11-beta-hydroxysteroid dehydrogenase 1 (Mus musculus), sequence (P50172 whole entry, looked up): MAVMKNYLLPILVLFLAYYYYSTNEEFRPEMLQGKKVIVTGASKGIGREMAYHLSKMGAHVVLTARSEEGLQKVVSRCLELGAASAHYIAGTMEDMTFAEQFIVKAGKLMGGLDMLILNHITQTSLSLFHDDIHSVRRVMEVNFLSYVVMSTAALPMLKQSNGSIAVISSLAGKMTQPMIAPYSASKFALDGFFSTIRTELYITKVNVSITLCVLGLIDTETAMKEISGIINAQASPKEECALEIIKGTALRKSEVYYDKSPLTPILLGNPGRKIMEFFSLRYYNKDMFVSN
T1 sequence (P50172 whole entry): as the sequence (P50172 whole entry, looked up) above

SMILES	microsomal CLint [1]	inhibition [2]	IC50 [3]	also measured
C[C@]1(C(=O)N[C@H]2C3CC4CC2C[C@](O)(C4)C3)CCCN1S(=O)(=O)c1cccnc1	55 µL/min/mg	17%		
C[C@]1(C(=O)N[C@H]2C3CC4CC2C[C@](O)(C4)C3)CCCN1S(=O)(=O)c1ccccc1C#N			0.125 µM	
Cc1c(Cl)cccc1S(=O)(=O)N1CCC[C@]1(C)C(=O)N[C@H]1C2CC3CC1C[C@](O)(C3)C2	106 µL/min/mg		0.0013 µM	half-life [4]: 14 min; clearance (Mus musculus [5]): 90 mL/min/kg; IC50 [6]: 2.2 µM; IC50 [7]: 0.121 µM; Vd [8]: 0.51 L/kg; AUC(0-t) [9]: 597 ng·h/mL; IC50 [10]: 0.0001 µM; bioavailability [11]: 63%; bioavailability [12]: 9.1%
C[C@]1(C(=O)N[C@H]2C3CC4CC2C[C@](O)(C4)C3)CCCN1S(=O)(=O)c1ccc(-c2ccccc2)cc1	87 µL/min/mg	37%		
Cc1c(Cl)cccc1S(=O)(=O)N1CCC[C@@]1(C)C(=O)N[C@H]1C2CC3CC1C[C@](O)(C3)C2			0.063 µM	IC50 [10]: 0.0031 µM
COC(=O)[C@H]1CC2COCC(C1)[C@H]2NC(=O)[C@@]1(C)CCCN1S(=O)(=O)c1cccc(Cl)c1C		33%		
CC[C@]1(C(=O)N[C@H]2C3CC4CC2C[C@](O)(C4)C3)CCCN1S(=O)(=O)c1cccc2cccnc12			0.164 µM	
Cc1c(Cl)cccc1S(=O)(=O)N1CCC[C@]1(C)C(=O)NC1C2CC3CC(C2)CC1C3 (stereo not given in full)	499 µL/min/mg		0.064 µM	
CC(C)(C)c1ccc(S(=O)(=O)N2CCC[C@]2(C)C(=O)N[C@H]2C3CC4CC2C[C@](O)(C4)C3)cc1		12%		
C[C@]1(C(=O)N[C@H]2C3CC4CC2C[C@](O)(C4)C3)CCCN1S(=O)(=O)c1ccc(C#N)cc1Cl	134 µL/min/mg		0.146 µM	
COc1ccc(S(=O)(=O)N2CCC[C@]2(C)C(=O)N[C@H]2C3CC4CC2C[C@](O)(C4)C3)cc1OC	132 µL/min/mg	3%		
CC(=O)c1ccc(S(=O)(=O)N2CCC[C@]2(C)C(=O)N[C@H]2C3CC4CC2C[C@](O)(C4)C3)cc1	12 µL/min/mg	16%		
CC(O)(c1ccc(S(=O)(=O)N2CCC[C@]2(C)C(=O)N[C@H]2C3CC4CC2C[C@](O)(C4)C3)cc1)C(F)(F)F (stereo not given in full)	64 µL/min/mg	26%		
C[C@]1(C(=O)N[C@H]2C3CC4CC2C[C@](O)(C4)C3)CCCN1S(=O)(=O)c1cccs1	15 µL/min/mg		0.112 µM	
Cc1c(Cl)cccc1S(=O)(=O)N1CCC[C@]1(C)C(=O)NC12CC3CC(CC(O)(C3)C1)C2		18%		inhibition [13]: 35%
Cc1c(Cl)cccc1S(=O)(=O)N1CCC[C@]1(C)C(=O)NC1CCCCC1	140 µL/min/mg	9.2%		
CO[C@H]1CC[C@H](NC(=O)[C@@]2(C)CCCN2S(=O)(=O)c2cccc(Cl)c2C)CC1		15%		inhibition [13]: 37%
CN(C)c1cccc2c(S(=O)(=O)N3CCC[C@]3(C)C(=O)N[C@H]3C4CC5CC3C[C@](O)(C5)C4)cccc12	148 µL/min/mg	31%		
Cc1c(Cl)cccc1S(=O)(=O)N1CCC[C@@H]1C(=O)NC1CCCCC1	430 µL/min/mg			
C[C@]1(C(=O)N[C@H]2C3CC4CC2C[C@](O)(C4)C3)CCCN1S(=O)(=O)c1cccc2cccnc12	51 µL/min/mg		0.011 µM	inhibition (Mus musculus [14]): Dose-dependent effect; half-life [4]: 14 min; Activity (Mus musculus [15]): 11%; inhibition in vivo at 30 mg/kg (Mus musculus [16]): 89%; clearance (Mus musculus [5]): 60 mL/min/kg; Activity (Mus musculus [17]): 29%; concentration at 2 min [18]: 80 ng/mL; IC50 [6]: > 10 µM; inhibition in vivo at 10 mg/kg (Mus musculus [19]): 71%; concentration at 62 min [20]: 94 ng/mL; concentration at 2 min [21]: 28 ng/mL; IC50 [7]: 0.011 µM; Vd [8]: 0.63 L/kg; inhibition in vivo at 3 mg/kg (Mus musculus [22]): 34%; AUC(0-t) [9]: 939 ng·h/mL; IC50 [10]: 0.0077 µM; bioavailability [11]: 33%; Activity (Mus musculus [23]): 66%; bioavailability [12]: 3%
C=CC[C@]1(C(=O)N[C@H]2C3CC4CC2C[C@](O)(C4)C3)CCCN1S(=O)(=O)c1cccc2cccnc12			0.087 µM	inhibition [13]: 33%
CC(O)(c1ccc(S(=O)(=O)N2CCC[C@]2(C)C(=O)N[C@H]2C3CC4CC2C[C@](C#N)(C4)C3)cc1)C(F)(F)F (stereo not given in full)		9.5%		
C[C@]1(C(=O)N[C@H]2C3CC4CC2C[C@](O)(C4)C3)CCCN1S(=O)(=O)c1ccc(Br)s1	57 µL/min/mg		0.097 µM	
COC(=O)[C@]12CC3CC(C1)[C@@H](NC(=O)[C@@]1(C)CCCN1S(=O)(=O)c1ccc(C(C)(O)C(F)(F)F)cc1)C(C3)C2 (stereo not given in full)		14%		
Cc1c(Cl)cccc1S(=O)(=O)N1CCC[C@]1(C)C(=O)N[C@H]1CC[C@H](O)CC1		13%		
